Paper PMC11899342, “Novel Triazeneindole Antibiotics: Synthesis and Hit-to-Lead Optimization” (International Journal of Molecular Sciences, 2025)
≈ marks a conversion by molar mass, not a printed value. Where two headings read alike, the source gives them in different places.

Columns and labels:
[1] = system: MRSA clinical isolates; assay: MIC by broth microdilution against multidrug-resistant MRSA clinical isolates; type: cell-based, Staphylococcus aureus; conditions: 8 multidrug-resistant MRSA clinical isolates; tested 0.125-1 mg/L
Experimental: Clinical MRSA isolates with multidrug resistance were obtained from the collection of the Research Institute of Antimicrobial Chemotherapy, Smolensk State Medical Academy.
The MICs were determined using a broth microdilution method according to [42]. Briefly, serial dilutions of the tested compounds in 50 µL of Mueller Hinton broth (BD) were prepared in 96-well microplates. The antibiotics vancomycin and linezolid (Sigma-Aldrich, St. Louis, MO, USA) were used as a positive control. Bacterial suspensions of the tested MRSA strains were prepared in the Mueller Hinton broth (BD) with a concentration 1 × 10^6 CFU/mL, and then 50 µL aliquots were added to the prepared microplates. The final concentrations of the antibiotics in the wells were 1, 0.5, 0.25, and 0.125 mg/L, for the tested compounds, and 2 mg/L for vancomycin and linezolid. Negative control (lack of bacterial cells) and growth control (lack of compound) wells were included in all plates. The microplates were incubated at 37 °C for 18 h. The growth was assessed visually after incubation, and the MIC was assumed as the lowest compound concentration at which a noticeable growth of the microorganisms was inhibited (no visible growth). All experiments were conducted in triplicate.

[2] = Solubility in water by HPLC; type: physicochemical; conditions: water, kinetic from dmso stock
Experimental: The solubility of the compounds in water was assessed using HPLC analysis. Two 1.0 mg portions of the test compounds were dissolved in 10 μL of dimethyl sulfoxide; 1.0 mL of acetonitrile was added to one sample (standard), and 1.0 mL of water was added to the second sample (tested sample). Both vials were mixed in a shaker for 5 min, then centrifuged at 10,000 rpm for 5 min. The supernatants were collected and analyzed using Agilent 1290 Infinity (Agilent Technologies, Santa Clara, CA, USA) with a YMC-Triart C18 50 × 2.0 mm, 1.9 μm column. The concentration of the test compound in water was determined by comparing the peak areas of the standard (concentration 1.0 mg/mL) and the tested sample.

[3] = read-out: Solubility in water, mass concentration
[4] = read-out: Solubility in water, molar concentration

Row | Compound | MIC Range Against 8 MRSA Strains [1] [µg/mL] | solubility at 5 min [2, 3] [µg/mL] | solubility at 5 min [2, 4] [µM]
1 | CCOC(=O)c1c(/N=N/N(C)Cc2ccccc2)c2cccnc2n1C [BX-SI020, Ethyl (E)-3-(3-benzyl-3-methyltriaz-1-en-1-yl)-1-methyl-1H-pyrrolo[2,3-b]pyridine-2-carboxylate] | >1 | 7.53 | 20
2 | CCOC(=O)c1c(/N=N/N(C)CCN(C)C)c2cccnc2n1C [BX-SI027, Ethyl (E)-3-(3-(2-(dimethylamino)ethyl)-3-methyltriaz-1-en-1-yl)-1-methyl-1H-pyrrolo[2,3-b]pyridine-2-carboxylate] | >1 | 927 | 2780
3 | CCOC(=O)c1c(/N=N/N2CCN(Cc3ccccc3)CC2)c2cccnc2n1C [BX-SI021, Ethyl (E)-3-((4-benzylpiperazin-1-yl)diazenyl)-1-methyl-1H-pyrrolo[2,3-b]pyridine-2-carboxylate] | >1 | 12.5 | 10
4 | CCOC(=O)c1[nH]c2cc(F)ccc2c1/N=N/N1CCN(Cc2ccccc2)CC1 [BX-SI038, Ethyl (E)-3-((4-benzylpiperazin-1-yl)diazenyl)-6-fluoro-1H-indole-2-carboxylate] | >1 | 0.383 | 1
5 | CCOC(=O)c1[nH]c2cc(F)ccc2c1/N=N/N(CC)CC [BX-SI036, Ethyl (E)-3-(3,3-diethyltriaz-1-en-1-yl)-6-fluoro-1H-indole-2-carboxylate] | >1 | 10 | 30

More lines, now with the values ahead:

Row | MIC Range Against 8 MRSA Strains [1] [µg/mL] | solubility at 5 min [2, 3] [µg/mL] | solubility at 5 min [2, 4] [µM] | Compound
6 | >1 | 88.2 | 290 | CCOC(=O)c1c(/N=N/N(CC)CC)c2cccnc2n1C [BX-SI019, Ethyl (E)-3-(3,3-diethyltriaz-1-en-1-yl)-1-methyl-1H-pyrrolo[2,3-b]pyridine-2-carboxylate]
7 | 1 (≈ 2.82 µM) | 18.4 | 50 | CCOC(=O)c1[nH]c2cc(F)ccc2c1/N=N/N(C)Cc1ccccc1 [BX-SI037, Ethyl (E)-3-(3-benzyl-3-methyltriaz-1-en-1-yl)-6-fluoro-1H-indole-2-carboxylate]
